According to patent US10513511B2, “Aqueous suspension formulation comprising 4-(4-(4-(((3R,5R)-5-((1H-1,2,4-triazol-1-yl)methyl)-5-(2,4-difluoro-phenyl)tetrahydrofuran-3-yl)methoxy)-3-methylphenyl) or a pharmaceutically acceptable salt thereof” (PULMOCIDE LIMITED, priority 2015, dated 2019):

How the values were obtained:
BEAS2B cells = experiment: Cell viability: resazurin assay; type: cell-based; conditions: at concentrations indicated in Table 4
IL-6 = experiment: Serum IL-6 in Aspergillus fumigatus infected, immunocompromised, neutropenic mice; type: in vivo, A/J mice; conditions: for IL-6 in serum, % Inhibition / Conc of Biomarkers, IL-6 in serum: therapeutic; for Conc of Biomarkers, IL-6 in serum: mean ± SEM, N = 6
Protocol: (§1) Aspergillus fumigatus (ATCC 13073 [strain: NIH 5233], American Type Culture Collection, Manassas, Va., USA) was grown on Malt agar (Nissui Pharmaceutical, Tokyo, Japan) plates for 6-7 days at RT (24±1° C.). Spores were aseptically dislodged from the agar plates and suspended in sterile distilled water with 0.05% Tween 80 and 0.1% agar. On the day of infection, spore counts were assessed by haemocytometer and the inoculum was adjusted to obtain a concentration of 1.67×10^8 spores mL^−1 of physiological saline. […] On day 0, animals were infected with the spore suspension (30 μL intra-nasally).
(§2) Test substances were administered intra-nasally (35 μL of a suspension (0.0032-10.0 mg/mL of drug substance in physiological saline) once daily, on days 1, 2 and 3 only (thereby representing a therapeutic treatment regimen). For extended prophylactic treatment, test compounds (35 μL of a suspension of 0.0032 or 0.016 mg/mL in physiological saline) were administered intra-nasally once daily for seven days. One group was dosed 30 min before infection on day 0 but not subsequently, while a second group was further dosed on days 1, 2 and 3 after infection. The effects of these treatment paradigms were compared with those obtained when treatment was restricted in other groups to either one day or 30 min before inoculation and then on days 1, 2 and 3 post infection in both cases. In a final group, dosing was limited still further with animals dosed twice, one day and 30 min before infection only.
(§3) Animal body weights were monitored daily and at 6 hr after the last dose of drug was administered on day 3, the animals were anesthetised, the tracheas cannulated and BALF blood and lung tissue were collected. The levels of IL-6 and TNFα in serum were determined using Quantikine® mouse IL-6 or TNF-α ELISA kit (R&D systems, Inc., Minneapolis, Minn., USA) respectively. Aspergillus GM in serum was determination using Platelia GM-EIA kits (Bio-Rad Laboratories, Redmond, Wash., USA). Cut-off index (COI) was calculated by the formula: Cut-off index=OD in sample/OD in cut-off control provided in kit. For tissue fungal load assays, 100 mg of lung tissue was removed aseptically and homogenized in 0.2 mL of 0.1% agar in sterile distilled water. Serially diluted lung homogenates were plated on Malt agar plates (50 μL/plate), and incubated at 24±1° C. for 72 to 96 h. The colonies of A. fumigatus on each plate were counted and the fungal titre presented herein as CFUs per gram of lung tissue.

TNFα = experiment: Serum TNFα in Aspergillus fumigatus infected, immunocompromised, neutropenic mice; type: in vivo, A/J mice; conditions: for TNFα in serum, % Inhibition / Conc of Biomarkers, TNFα in serum: therapeutic; for Conc of Biomarkers, TNFα in serum: mean ± SEM, N = 6
Protocol: as §1, §2, §3

[1] = serum, title: Therapeutic Treatment

Cc1cc(N2CCN(c3ccc(C(=O)N[C@H]4CCCC[C@@H]4O)cc3)CC2)ccc1OC[C@@H]1CO[C@@](Cn2cncn2)(c2ccc(F)cc2F)C1 [Compound (Ia), 4-(4-(4-(((3R,5R)-5-((1H-1,2,4-triazol-1-yl)methyl)-5-(2,4-difluorophenyl)tetrahydrofuran-3-yl)methoxy)-3-methylphenyl)piperazin-1-yl)-N-((1S,2S)-2-hydroxycyclohexyl) benzamide]
effect on the viability of BEAS2B bronchial epithelial cells (BEAS2B cells): no or little effect | IL-6 in serum, % Inhibition (IL-6; Drug Conc 3.2 μg/mL): 17% | Conc of Biomarkers, IL-6 in serum (IL-6; Drug Conc 3.2 μg/mL): 247 ± 185 pg/mL | IL-6 in serum, % Inhibition (IL-6; Drug Conc 16 μg/mL): 12% | Conc of Biomarkers, IL-6 in serum (IL-6; Drug Conc 16 μg/mL): 262 ± 185 pg/mL | IL-6 in serum, % Inhibition (IL-6; Drug Conc 80 μg/mL): 78% | Conc of Biomarkers, IL-6 in serum (IL-6; Drug Conc 80 μg/mL): 66.5 ± 32.9 pg/mL | ID50 Values for biomarkers indicated, IL-6 (IL-6; [1]): 50 µg/mL | TNFα in serum, % Inhibition (TNFα; Drug Conc 3.2 μg/mL): 20% | Conc of Biomarkers, TNFα in serum (TNFα; Drug Conc 3.2 μg/mL): 28.1 ± 13.8 pg/mL | TNFα in serum, % Inhibition (TNFα; Drug Conc 16 μg/mL): 38% | Conc of Biomarkers, TNFα in serum (TNFα; Drug Conc 16 μg/mL): 21.8 ± 14.6 pg/mL | TNFα in serum, % Inhibition (TNFα; Drug Conc 80 μg/mL): 87% | Conc of Biomarkers, TNFα in serum (TNFα; Drug Conc 80 μg/mL): 4.7 ± 1.0 pg/mL | ID50 Values for biomarkers indicated, TNFα (TNFα; [1]): 27 µg/mL
